Laboratory results from patent US20250091995A1, “STABLE CRYSTAL OF 4-OXOQUINOLINE COMPOUND” (Japan Tobacco Inc., priority 2004, published 2025).
≈ marks a conversion by molar mass, not a printed value.

Tests used:
Type in all cases: physicochemical
[1] = Thermal analysis (DSC): enthalpy and extrapolated onset temperature at endothermic peak; conditions: for Endothermic peak Enthalpy / Endothermic peak Extrapolated onset temperature: crystal forms I and II 10° C./min, aluminum open pan, crystal form III 5° C./min, aluminum closed pan
Description: This test aims at the measurement of the enthalpy and extrapolated onset temperature at an endothermic peak on the Differential Scanning Calorimetry (DSC) measurement curve. These values are among the indices of the stability of the above-mentioned crystal form I, crystal form II and crystal form III, and can be used as an index to specify the crystal form. Crystal form I and crystal form II were subjected to measurement using a Differential Scanning Calorimetry (DSC) measurement apparatus (DSC8240, manufactured by Rigaku Corporation), under atmosphere, measurement sample 5±1 mg, temperature rise rate: 10° C./min, aluminum open pan, and alumina oxide as a reference. The enthalpy and extrapolated onset temperature at an endothermic peak on the obtained DSC curve were determined. Crystal form III was subjected to measurement using a DSC measurement apparatus (DSC8240, manufactured by Rigaku Corporation), under atmosphere, measurement sample 5.0+0.5 mg, temperature rise rate: 5° C./min, aluminum closed pan, and alumina oxide as a reference. The enthalpy and extrapolated onset temperature at an endothermic peak on the obtained DSC curve were determined.

[2] = Solubility test in various test solutions and pHs
Procedure: This test aims at measurement of solubility of the crystal in various test solutions and under various pHs. The solubility is one of the indices of the stability of the above-mentioned crystal form I, crystal form II and crystal form III and can be used also as a reference indices of absorbability of crystal form by living organisms. Each sample (crystal form I type I, crystal form II and crystal form III, ca. 10 mg) was placed in a 10 mL centrifuge tube together with the following test solution (5 mL) and shaken with a shaker (SR-1M; manufactured by […] Co., Ltd.) for 14 hours. After shaking, the mixture was centrifuged (3000 rpm, 20 min) and the supernatant was filtered through 0.2 μm pore size-13 mm diameter polytetrafluoroethylene disk filter (Millex-LG; manufactured by Millipore Corporation). The measurement was performed by high performance liquid chromatography (HPLC).

[3] = Stability test under preservation conditions (appearance, HPLC purity, XRD, DSC); conditions: for Stability under various preservation conditions (overall evaluation): all preservation conditions; for Purity: HPLC
Procedure: A sample was fixed to an aluminum cell, and the measurement was performed using an X-ray powder diffractometer (RINT 2000/PC Ultima^+, manufactured by Rigaku Corporation, X-ray source: Cu-Kα1 ray, tube voltage: 40 kV, tube electric current: […], scan speed: 5° per min, step width: 0.02°, diffraction angle: 5-40°), based on which the diffraction patterns were obtained. Crystal form I and crystal form II were subjected to measurement using a Differential Scanning Calorimetry (DSC) measurement apparatus (DSC8240, manufactured by Rigaku Corporation), under atmosphere, measurement sample 5±1 mg, temperature rise rate: 10° C./min, aluminum open pan, and alumina oxide as a reference. The enthalpy and extrapolated onset temperature at an endothermic peak on the obtained DSC curve were determined. Crystal form III was subjected to measurement using a DSC measurement apparatus (DSC8240, manufactured by Rigaku Corporation), under atmosphere, measurement sample 5.0+0.5 mg, temperature rise rate: 5° C./min, aluminum closed pan, and alumina oxide as a reference. The enthalpy and extrapolated onset temperature at an endothermic peak on the obtained DSC curve were determined. Each sample (crystal form I and crystal form II, ca. 10 mg) was dissolved in acetonitrile to make an amount of 10 mL and used as a sample solution. This solution ([…]) was applied to high performance liquid chromatography (HPLC) under the following conditions. The peak area of each sample solution was measured by automatic integration, and the purity was determined by the following formula. The purity is shown in the Tables 5 and 6 below. • Detector: UV absorptiometer (wavelength: 259 nm) • Column: CAPCELL PAK MG (inner diameter […], length 15 cm, particle size 5 μm, manufactured by Shiseido Co., Ltd. • Column temperature: constant temperature around 40° C. • Mobile phase A: trifluoroacetic acid solution (1:1000) • Mobile phase B: solution of trifluoroacetic acid in acetonitrile (1:1000) • Gradient program: As shown in the following Table 2, the mixing ratio of mobile phase A and mobile phase B is changed to control concentration gradient. A sample (crystal form III, ca. 50 mg) was dissolved in a mixture (4:1) of mobile phase B and mobile phase A to make an amount of 50 mL, which was used as a sample solution. This solution (1 mL) was precisely measured and a mixture (4:1) of mobile phase B and mobile phase A was added to precisely make an amount of 100 mL, which was used as a standard solution. The sample solution and standard solution ([…]) was applied to high performance liquid chromatography (HPLC) under the following conditions. The peak area of each solution was measured by automatic integration, and the purity was determined by the following formula. The purity is shown in the Table 7 below. • Detector: UV absorptiometer (wavelength: 259 nm) • Column: Waters XTerra MC C18 ([…], manufactured by Waters) • Column temperature: constant temperature around 40° C. • Mobile phase A: phosphoric acid is added to dipotassium hydrogenphosphate solution (1>1149) to adjust pH to 7.0 • Mobile phase B: acetonitrile • Gradient program: As shown in the following Table 3, the mixing ratio of mobile phase A and mobile phase B is changed to control concentration gradient. A stability test of each sample was performed under the following preservation conditions. The results of crystal form I are shown in Table 5, the results of crystal form II are shown in Table 6, and the results of crystal form III are shown in Table 7.

[4] = Japanese Pharmacopoeia 1st fluid, pH 1.2, shaken 14 hours
[5] = Japanese Pharmacopoeia 2nd fluid, pH 6.8, shaken 14 hours
[6] = McIlvaine buffer pH 2.2, shaken 14 hours
[7] = McIlvaine buffer pH 4, shaken 14 hours
[8] = McIlvaine buffer pH 5, shaken 14 hours
[9] = McIlvaine buffer pH 6.8, shaken 14 hours
[10] = McIlvaine buffer pH 8, shaken 14 hours
[11] = Purified water, shaken 14 hours
[12] = condition 2: 80° C., closed container, preserved for 3 days
[13] = condition 3: 80° C., open container, preserved for 3 days
[14] = condition 4: 60° C., closed container, preserved for 3 weeks
[15] = condition 5: 60° C., open container, preserved for 3 weeks
[16] = condition 6: 60° C./75% R.H., closed container, preserved for 3 weeks
[17] = condition 6: 60° C./75% R.H., open container, preserved for 3 weeks

Endothermic peak Enthalpy [1] | Endothermic peak Extrapolated onset temperature [1] | Solubility [2, 4] | Solubility [2, 5] | Solubility [2, 6] | Solubility [2, 7] | Stability under various preservation conditions (overall evaluation) [3] | Purity ([3]; condition 1: Initial) | Appearance [3, 12] | XRD (X-ray powder diffraction pattern vs initial) [3, 12] | Purity [3, 12] | Appearance [3, 13] | XRD (X-ray powder diffraction pattern vs initial) [3, 13] | Purity [3, 13] | Appearance [3, 14] | XRD (X-ray powder diffraction pattern vs initial) [3, 14] | Purity [3, 14] | Appearance [3, 15] | XRD (X-ray powder diffraction pattern vs initial) [3, 15] | Purity [3, 15] | SMILES | further results
81.404 J/g | 162.1 °C | <0.1 µg/mL | 2.4 µg/mL (≈ 5.36 µM) | <0.1 µg/mL | <0.1 µg/mL | extremely stable | 98.71% | No change | No change | 98.68% | No change | No change | 98.69% | No change | No change | 98.67% | No change | No change | 98.66% | COc1cc2c(cc1Cc1cccc(Cl)c1F)c(=O)c(C(=O)O)cn2[C@H](CO)C(C)C [Crystal form III, 6-(3-chloro-2-fluorobenzyl)-1-[(S)-1-hydroxymethyl-2-methylpropyl]-7-methoxy-4-oxo-1,4-dihydroquinoline-3-carboxylic acid] | Stability among three crystal forms judged from enthalpy and extrapolated onset temperature [1]: most stable form; Solubility [2, 8]: <0.1 µg/mL; Solubility ([2]; McIlvaine buffer pH 6, shaken 14 hours): 0.7 µg/mL (≈ 1.56 µM); Solubility [2, 9]: 0.7 µg/mL (≈ 1.56 µM); Solubility [2, 10]: 23 µg/mL (≈ 51.4 µM); Solubility [2, 11]: <0.1 µg/mL; Appearance [3, 16]: No change; XRD (X-ray powder diffraction pattern vs initial) [3, 16]: No change; Purity [3, 16]: 98.65%
53.542 J/g | 151.2 °C | 0.9 µg/mL (≈ 2.01 µM) | 5.8 µg/mL (≈ 12.9 µM) | 1.9 µg/mL (≈ 4.24 µM) | 0.8 µg/mL (≈ 1.79 µM) | extremely stable | 98.9% | No change | No change | 98.9% | No change | No change | 98.8% | No change | No change | 98.9% | No change | No change | 98.8% | COc1cc2c(cc1Cc1cccc(Cl)c1F)c(=O)c(C(=O)O)cn2[C@H](CO)C(C)C [Crystal form II, 6-(3-chloro-2-fluorobenzyl)-1-[(S)-1-hydroxymethyl-2-methylpropyl]-7-methoxy-4-oxo-1,4-dihydroquinoline-3-carboxylic acid] | Solubility [2, 8]: 0.4 µg/mL (≈ 0.893 µM); Solubility [2, 9]: 6.3 µg/mL (≈ 14.1 µM); Solubility [2, 10]: 84 µg/mL (≈ 188 µM); solubility at 14 h ([2]; McIlvaine buffer, pH 6, aqueous buffer, thermodynamic from solid, McIlvaine buffer pH 6, shaken 14 hours): 1 µg/mL (≈ 2.23 µM); Solubility [2, 11]: 0.5 µg/mL (≈ 1.12 µM); Solubility compared between crystal forms ([2]; all test solutions of Table 4): higher solubility than crystal form III; Appearance [3, 17]: No change; XRD (X-ray powder diffraction pattern vs initial) [3, 17]: No change; Purity [3, 17]: 98.9%

SMILES | Endothermic peak Enthalpy [1] | Endothermic peak Extrapolated onset temperature [1] | Solubility [2, 4] | Solubility [2, 5] | Solubility [2, 6] | Solubility [2, 7] | Stability under various preservation conditions (overall evaluation) [3] | Purity ([3]; condition 1: Initial) | Appearance [3, 12] | XRD (X-ray powder diffraction pattern vs initial) [3, 12] | Purity [3, 12] | Appearance [3, 13] | XRD (X-ray powder diffraction pattern vs initial) [3, 13] | Purity [3, 13] | Appearance [3, 14] | XRD (X-ray powder diffraction pattern vs initial) [3, 14] | Purity [3, 14] | Appearance [3, 15] | XRD (X-ray powder diffraction pattern vs initial) [3, 15] | Purity [3, 15] | further results
COc1cc2c(cc1Cc1cccc(Cl)c1F)c(=O)c(C(=O)O)cn2[C@H](CO)C(C)C [Crystal form I, 6-(3-chloro-2-fluorobenzyl)-1-[(S)-1-hydroxymethyl-2-methylpropyl]-7-methoxy-4-oxo-1,4-dihydroquinoline-3-carboxylic acid] | 51.080 J/g | 150.3 °C | – | – | – | – | unstable | 99.1% | No change | No change | 99.1% | No change | a part of the sample showed crystal transition to crystal form II | 99.1% | No change | No change | 99.1% | No change | a part of the sample showed crystal transition to crystal form II | 99.1% | Appearance [3, 17]: No change; XRD (X-ray powder diffraction pattern vs initial) [3, 17]: No change; Purity [3, 17]: 99.1%
